Measured values published in patent US20210393857A1, “SMALL MOLECULE DRUGS AND METHODS TO ACCELERATE OSSEOINTEGRATION” (The Regents of the University of California, priority 2018, published 2021).
Structures can show the parent of a compound that is named as a salt. Marks after values point to notes of the source that are not given here.

Key:
[1] = system: I1 imidazoline receptor; conditions: comparison within marsanidine, 7-Me-, 7-Cl-, 7-F-marsanidine; cited from earlier work
[2] = system: α2-adrenoreceptors; conditions: comparison within marsanidine, 7-Me-, 7-Cl-, 7-F-marsanidine; cited from earlier work
[3] = system: Npas2-LacZ expression of mouse BMSC; assay: High throughput screening of LOPAC 1280 compounds for Npas2-LacZ expression (Beta-Glo β-galactosidase assay); assay type: cell-based; conditions: compound 1 μM, 48 hours, BMSC from Npas2−/− mice carrying LacZ reporter
Description: Femur BMSC harvested from Npas2−/− mice were previously characterized for LacZ expression, which was used in this study for high throughput, unbiased screening of Library of Pharmacologically Active Compounds (LOPAC®^1280). (Hassan, N., et al., (2017) PLoS One 12, e0183359). Using 384-well plates, each well was filled with 25 μl non-phenol red DMEM containing 10% FBS and 1% PS, and added 50 nL of LOPAC®^1280 compound (final concentration: 1 μM) using 500 nL pin tool (Biomek FX, Beckman Coulter, Indianapolis, Ind.). To each well, BMSC (Npas2-LacZ) were placed as 1500 cells/25 μl suspension and incubated at room temperature for 1 hour, followed by incubation at 37° C. and 5% CO2 for 48 hours. To measure Npas2-LacZ expression, β-galactosidase activity was measured using a commercially available assay (Beta-Glo Assay System, Promega, Summerville, Calif.).
The Npas2-LacZ expression data were uploaded on an online data analysis tool (CDD Vault, Collaborative Drug Discovery, Inc, Burlingame, Calif.), on which data were normalized and Z-factor was calculated. For this study, hit compounds were selected as Z-score >2.5 or <−2.5.

[4] = system: adenosine A1 and A2 receptors; conditions: selectivity A1 over A2; cited from earlier work
[5] = system: implant osseointegration in mouse femur; assay: Implant push-out test of Ti implants placed in mouse femur; assay type: in vivo; conditions: 75 mg/Kg daily IP for 2 weeks, machined or B-DAE-DCD surface implants, vs vehicle 0.9% NaCl
Description: Male 10˜15-wk-old C57Bl/6J mice underwent surgical placement of Ti implants. After anesthesia with isoflurane inhalation, the distal femur was accessed via medial parapatellar arthrotomy with lateral displacement of the quadriceps-patellar complex. After locating the femoral intercondylar notch, the femoral intramedullary canal was manually reamed with a 25-gauge needle for entry into the canal and further reamed with a 23-gauge needle. A Ti implant was inserted in a retrograde fashion into each femur of a mouse. The Ti implant was clipped at 4 mm and further inserted 4 mm using a periodontal probe. The quadriceps-patellar complex was reduced to its anatomic position, and the surgical site was closed using Vicryl 5-0 sutures. Carprofen (5.0 mg/kg) (Rimadyl, Zoetis US, Parsippany, N.J.) was administered subcutaneously at the time of surgery and every 24 hours for 2 days after surgery.
Mice were euthanized and femur bones were harvested at the predetermined healing time. […] The mechanical withholding strength was measured by pushing the implant out from the femur bone marrow using a custom-made stainless-steel pushing rod mounted on a 1000-N load cell (Instron, Canton, Mass.). The axial load on the implant was applied at a cross-head speed of 1 mm/min, and displacement of the implant and the load were recorded. […]

Structure (SMILES) | affinity for the I1 imidazoline receptor (rank among marsanidine analogs) [1] | affinity for α2-adrenoreceptors (rank among marsanidine analogs) [2] | % Activity (activity against negative controls in LOPAC 1280 screening) [3] | other results
c1ccc2c(c1)cnn2N=C1NCCN1 [marsanidine] | lowest affinity for the I1 imidazoline receptor | highest affinity for α2-adrenoreceptors |  | 
Cc1nccc2c1[nH]c1ccccc12 [Harmane (MS-1500866), 1-Methyl-9H-pyrido[3,4-b]indole] |  |  | −15.6** % | 
Cn1c(=O)c2[nH]c(-c3ccc(S(=O)(=O)O)cc3)nc2n(C)c1=O [8-(p-Sulfophenyl)-theophylline, 8-(p-sulfophenyl) theophylline] |  |  | 104.0% | 
CC[C@@H](CO)NC(=O)[C@@H]1C=C2c3cccc4c3c(cn4C)C[C@H]2N(C)C1 [Methysergide maleate, 1-methyl-D-lysergic acid butanolamide] |  |  | 28.6% | 
Cc1cccc2cnn(N=C3NCCN3)c12 [7-Me-marsanidine] | highest affinity for the I1 imidazoline receptor | low affinity for α2-adrenoreceptors |  | 
O=C1CCc2cc(OCCCCc3nnnn3C3CCCCC3)ccc2N1 [Cilostazol (MS-1505230), 6-[4-(1-cyclohexyl-1H-tetrazol-5-yl)-butoxy]-3,4-dihydro-2(1H)-quinolinone] |  |  | 26.2% | 
O=c1ccc2c(OCCCCc3ccccc3)c3ccoc3cc2o1 [Psora-4, 5-(4-phenylbutoxy)psoralen] |  |  | 35.3% | 
CCCn1c(=O)c2[nH]c(-c3ccccc3)nc2n(CCC)c1=O [1,3-dipropyl-8-phenylxanthine] |  |  |  | fold more potent at A1 receptors than at A2 receptors [4]: about 23 fold
Clc1cccc2cnn(N=C3NCCN3)c12 [7-Cl-marsanidine] | lower affinity for the I1 imidazoline receptor | higher affinity for α2-adrenoreceptors |  | 
CCCn1c(=O)c2[nH]c(-c3ccc(Cl)cc3N)nc2n(CCC)c1=O [8-(2-amino-4-chlorophenyl)-1,3-dipropylxanthine] |  |  |  | fold more potent at A1 receptors than at A2 receptors [4]: ~400 fold
Fc1cccc2cnn(N=C3NCCN3)c12 [7-F-marsanidine] | higher affinity for the I1 imidazoline receptor than 7-Cl-marsanidine | comparable affinity for α2-adrenoreceptors |  | 
C[C@](N)(Cc1ccc(O)c(O)c1)C(=O)O [Methyldopa (L, −), L-α-Methyl-3,4-dihydroxyphenylalanine] |  |  | 18.1% | implant push-out value [5]: greater push-out value than vehicle treated control mice
